For data set [1], the target named is T1, Bromodomain-containing protein 4 (Homo sapiens, UniProt O60885). In words: Inhibition of recombinant His-tagged BRD4 bromodomain 1 (unknown origin) after 10 mins by TR-FRET assay.
Data set [2] concerns the target T1, Bromodomain-containing protein 4. The data set can be described thus: Inhibition of recombinant His-tagged BRD4 bromodomain 2 (unknown origin) after 10 mins by TR-FRET assay. (In general: In TR-FRET formats the signal depends on donor and acceptor labels being close together.)
For data set [3], the target named is T2, Transcription initiation factor TFIID subunit 1 (Homo sapiens, UniProt P21675). In words: Inhibition of recombinant His-tagged TAF1 bromodomain 1 (unknown origin) after 10 mins by TR-FRET assay.
Data set [4] addresses T2, Transcription initiation factor TFIID subunit 1. The data set can be described thus: Inhibition of recombinant His-tagged TAF1 bromodomain 2 (unknown origin) after 10 mins by TR-FRET assay.
In data set [5] the target is T3, Chromatin remodeling regulator CECR2 (Homo sapiens, UniProt Q9BXF3). The data set can be described thus: Inhibition of recombinant His-tagged CECR2 (unknown origin) after 10 mins by TR-FRET assay.
Data set [6] in a line: Kinetic solubility of the compound. To be noted: read-out: Kinetic_solubility. The data set is classed as physicochemical.
Data set [7] addresses Transcription initiation factor TFIID subunit 1-like (Homo sapiens, UniProt Q8IZX4). In words: Binding affinity to recombinant human full length DNA-tagged TAF1L bromodomain 2 (1523 to 1654 residues) expressed in bacterial expression system by bromoscan assay.
Data set [8] concerns the target T1, Bromodomain-containing protein 4. In words: Binding affinity to recombinant human full length DNA-tagged BRD4 short isoform expressed in bacterial expression system by bromoscan assay.
Data set [9] concerns NCI-H23. In words: Synergistic cytotoxicity against human H23 cells assessed as reduction in cell viability at 100 nM after 48 hrs in presence of BRD4 inhibitor JQ1 by celltiter-glo assay. The data set is classed as functional, cell-based. (ATP-based viability assays read luminescence as a measure of living cells.)
Data set [10] addresses T1, Bromodomain-containing protein 4. To be noted: 20 uM.
For data set [11], the target named is T3, Chromatin remodeling regulator CECR2.
The target in data set [12] is CREB-binding protein (Homo sapiens, UniProt Q92793). The data set can be described thus: Inhibition of recombinant His-tagged CBP (unknown origin) after 10 mins by TR-FRET assay.

As usually defined, the IC50 is the point on the concentration scale where inhibition reaches its midpoint. Broadly, the Kd is a measure of binding affinity in units of concentration.

Values after ≈ are worked out from the molar mass of the structure shown. Active and inactive are the calls of the source. No cut-off for these calls is given here.

T3 sequence (Q9BXF3 whole entry): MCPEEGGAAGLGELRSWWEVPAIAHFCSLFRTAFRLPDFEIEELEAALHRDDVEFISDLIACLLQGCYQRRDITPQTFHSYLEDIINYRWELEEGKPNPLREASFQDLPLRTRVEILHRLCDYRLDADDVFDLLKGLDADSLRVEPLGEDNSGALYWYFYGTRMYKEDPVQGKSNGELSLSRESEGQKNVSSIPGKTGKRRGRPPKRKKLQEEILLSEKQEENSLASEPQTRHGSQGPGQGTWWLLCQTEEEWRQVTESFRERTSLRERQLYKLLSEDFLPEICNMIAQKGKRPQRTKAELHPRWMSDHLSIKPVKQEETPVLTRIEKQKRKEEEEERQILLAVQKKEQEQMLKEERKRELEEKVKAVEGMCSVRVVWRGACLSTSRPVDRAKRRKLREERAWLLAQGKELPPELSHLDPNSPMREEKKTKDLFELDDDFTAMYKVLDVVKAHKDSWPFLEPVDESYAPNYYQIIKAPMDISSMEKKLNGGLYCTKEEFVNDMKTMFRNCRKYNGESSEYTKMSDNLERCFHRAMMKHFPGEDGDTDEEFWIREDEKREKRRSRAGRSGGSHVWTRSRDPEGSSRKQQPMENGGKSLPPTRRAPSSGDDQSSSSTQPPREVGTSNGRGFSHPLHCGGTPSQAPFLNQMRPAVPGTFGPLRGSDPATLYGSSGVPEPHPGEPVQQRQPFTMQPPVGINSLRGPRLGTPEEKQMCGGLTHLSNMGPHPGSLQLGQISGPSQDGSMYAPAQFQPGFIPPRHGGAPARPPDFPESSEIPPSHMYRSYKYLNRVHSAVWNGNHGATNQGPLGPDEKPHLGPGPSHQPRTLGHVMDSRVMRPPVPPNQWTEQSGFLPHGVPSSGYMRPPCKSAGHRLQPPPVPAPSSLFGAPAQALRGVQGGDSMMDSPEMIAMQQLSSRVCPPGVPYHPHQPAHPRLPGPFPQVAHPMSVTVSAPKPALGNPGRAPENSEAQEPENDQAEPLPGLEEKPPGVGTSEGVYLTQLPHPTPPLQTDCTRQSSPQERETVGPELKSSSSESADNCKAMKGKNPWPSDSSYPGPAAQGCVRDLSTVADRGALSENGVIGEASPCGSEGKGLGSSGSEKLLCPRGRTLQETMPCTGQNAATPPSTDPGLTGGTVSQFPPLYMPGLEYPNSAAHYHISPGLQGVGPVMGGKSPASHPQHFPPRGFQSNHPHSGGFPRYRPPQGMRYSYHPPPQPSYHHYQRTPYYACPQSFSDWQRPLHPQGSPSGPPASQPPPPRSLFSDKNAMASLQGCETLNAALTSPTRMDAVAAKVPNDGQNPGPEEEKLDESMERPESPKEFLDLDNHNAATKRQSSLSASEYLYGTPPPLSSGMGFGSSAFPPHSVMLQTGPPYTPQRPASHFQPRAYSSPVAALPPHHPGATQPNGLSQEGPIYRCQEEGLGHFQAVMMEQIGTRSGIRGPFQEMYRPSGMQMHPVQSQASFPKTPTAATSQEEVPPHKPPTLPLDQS
T2 sequence (P21675 whole entry): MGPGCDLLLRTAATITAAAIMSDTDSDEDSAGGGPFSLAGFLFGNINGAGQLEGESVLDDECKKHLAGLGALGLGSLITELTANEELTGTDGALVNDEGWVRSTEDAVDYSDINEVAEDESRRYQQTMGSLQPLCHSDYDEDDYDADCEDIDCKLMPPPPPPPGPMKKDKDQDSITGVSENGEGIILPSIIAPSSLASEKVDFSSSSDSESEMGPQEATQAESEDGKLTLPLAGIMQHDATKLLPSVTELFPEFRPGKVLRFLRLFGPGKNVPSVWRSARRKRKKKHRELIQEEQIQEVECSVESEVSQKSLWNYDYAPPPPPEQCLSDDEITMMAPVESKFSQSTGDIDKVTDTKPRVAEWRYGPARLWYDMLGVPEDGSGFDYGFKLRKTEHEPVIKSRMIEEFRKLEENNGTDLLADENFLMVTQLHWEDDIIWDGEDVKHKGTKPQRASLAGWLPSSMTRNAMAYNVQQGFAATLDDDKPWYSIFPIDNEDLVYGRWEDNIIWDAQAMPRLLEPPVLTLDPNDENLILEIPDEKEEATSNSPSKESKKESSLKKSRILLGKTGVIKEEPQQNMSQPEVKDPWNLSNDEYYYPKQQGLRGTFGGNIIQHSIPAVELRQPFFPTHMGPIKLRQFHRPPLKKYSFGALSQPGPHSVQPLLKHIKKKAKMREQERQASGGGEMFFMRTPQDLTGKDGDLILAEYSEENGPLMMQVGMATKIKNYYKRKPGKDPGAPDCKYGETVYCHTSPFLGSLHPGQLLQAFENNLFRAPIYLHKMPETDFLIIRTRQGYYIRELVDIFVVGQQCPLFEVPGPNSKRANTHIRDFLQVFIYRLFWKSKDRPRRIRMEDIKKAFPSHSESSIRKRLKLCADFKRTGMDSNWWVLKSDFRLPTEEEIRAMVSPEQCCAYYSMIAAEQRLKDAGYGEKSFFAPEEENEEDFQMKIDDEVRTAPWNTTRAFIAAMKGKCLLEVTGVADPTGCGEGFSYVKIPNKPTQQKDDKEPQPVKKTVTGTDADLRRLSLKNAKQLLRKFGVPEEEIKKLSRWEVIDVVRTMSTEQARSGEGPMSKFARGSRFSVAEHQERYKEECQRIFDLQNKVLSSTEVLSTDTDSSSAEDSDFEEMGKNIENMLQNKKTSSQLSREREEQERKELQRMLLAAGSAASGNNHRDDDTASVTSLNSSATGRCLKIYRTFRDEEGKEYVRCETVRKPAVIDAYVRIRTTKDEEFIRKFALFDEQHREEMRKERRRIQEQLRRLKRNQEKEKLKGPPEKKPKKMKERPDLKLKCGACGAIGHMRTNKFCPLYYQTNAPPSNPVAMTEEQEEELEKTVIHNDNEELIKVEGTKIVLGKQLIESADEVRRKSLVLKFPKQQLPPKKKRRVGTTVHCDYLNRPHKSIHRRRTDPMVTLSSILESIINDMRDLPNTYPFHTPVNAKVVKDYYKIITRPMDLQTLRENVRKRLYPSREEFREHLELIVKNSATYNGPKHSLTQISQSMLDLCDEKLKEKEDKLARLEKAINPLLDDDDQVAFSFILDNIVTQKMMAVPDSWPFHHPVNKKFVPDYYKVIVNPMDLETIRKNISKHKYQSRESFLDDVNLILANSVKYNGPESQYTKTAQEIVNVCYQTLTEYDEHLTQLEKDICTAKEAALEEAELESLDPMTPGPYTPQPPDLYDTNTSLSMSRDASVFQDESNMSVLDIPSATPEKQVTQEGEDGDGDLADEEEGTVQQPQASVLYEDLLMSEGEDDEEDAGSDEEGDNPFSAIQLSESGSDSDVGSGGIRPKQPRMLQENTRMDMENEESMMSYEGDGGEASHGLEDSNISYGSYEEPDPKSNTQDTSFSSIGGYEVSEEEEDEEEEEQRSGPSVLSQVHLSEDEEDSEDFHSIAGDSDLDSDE

`C=CCCn1cc(-c2cc(OC(F)F)cc(C(=O)N3CCOCC3)c2)c2cc[nH]c2c1=O`: the values for the IC50 in [1] and in [2] were 0.6 µM and 9 µM, respectively.

With `C=CCCn1cc(-c2cnc(OCC)c(C(=O)N3CCOCC3)c2)c2cc[nH]c2c1=O`, the IC50 worked out at 5.3 µM in [3]; 6.3 µM in data set [1]; 7.6 µM in data set [2]; 0.004 µM in data set [4]; 0.59 µM in data set [5].

For `C=CCCn1cc(-c2cc(C(=O)N3CCOCC3)cc3c2ncn3C)c2cc[nH]c2c1=O`, the results for the IC50 in data set [1], in [2] and in data set [5] were more than 20 µM, more than 20 µM and 1.2 µM, respectively. Besides, the solubility kinetic in data set [6] came out at 121 µM (≈ 52.2 µg/mL). The figures for the Kd in data set [7], in data set [8] and in data set [11] were 0.005 µM, 8.9 µM and 1.2 µM, respectively. Also, in data set [9], the outcome was Active. Moreover, the inhibition entry in [10] was “inactive”.

For `C=CCCn1cc(-c2cc(C(=O)N3CCOCC3)c3ncn(C)c3c2)c2cc[nH]c2c1=O`, the half-inhibitory concentration (IC50) in [1] was 8.2 µM; in [2], 12 µM; in [5] it was 0.36 µM.

For `C=CCCn1cc(-c2cc(C(=O)N3CCOCC3)c3ncn(CC)c3c2)c2cc[nH]c2c1=O`, the concentration for half-maximal inhibition (IC50) was found to be 3.4 µM in data set [1] and 6.8 µM in [2].

As for `C=CCCn1cc(-c2cc(C(=O)N3CCOCC3)c3c(c2)ncn3CC)c2cc[nH]c2c1=O`, the IC50 is more than 20 µM in [3]; 2 µM in [1]; 1 µM in data set [2]; 0.016 µM in [4]; 2.6 µM in data set [5].

On to `C=CCCn1cc(-c2cc(C(=O)N3CCOCC3)cc3[nH]cnc23)c2cc[nH]c2c1=O`, for which the IC50 in data set [1] and in [2] was more than 20 µM in each case.

In the case of `C=CCCn1cc(-c2cc(C#N)cc(C(=O)N3CCOCC3)c2)c2cc[nH]c2c1=O`, the IC50 in data set [1] came to 1.8 µM; in data set [2] it was 5 µM.

As to `C=CCCn1cc(-c2cccc(C(=O)N(C)C3CCCCC3)c2)c2cc[nH]c2c1=O`, the IC50 is 13 µM in data set [3]; 0.75 µM in data set [1]; 2.4 µM in data set [2]; 0.067 µM in data set [4]; more than 20 µM in [12]; 4 µM in data set [5].

On to `C=CCCn1cc(-c2cnc(OC)c(C(=O)N3CCOCC3)c2)c2cc[nH]c2c1=O`, for which the IC50 turned out to be 6.9 µM in [3]; 8.6 µM in [1]; 9.6 µM in [2]; 0.007 µM in [4]; 1 µM in data set [5].

On to `C=CCCn1cc(-c2cccc(C(=O)N3CCN(CCO)CC3)c2)c2cc[nH]c2c1=O`, for which the half-inhibitory concentration (IC50) in [3] is 14 µM; in data set [1] it was 3.2 µM; in data set [2], 5 µM; in data set [4] it was 0.083 µM; in data set [12] it was more than 20 µM; in data set [5] it was 1.1 µM.

For the molecule `C=CCCn1cc(-c2cc(F)c(F)c(C(=O)N3CCOCC3)c2)c2cc[nH]c2c1=O`, the IC50 in data set [1] was 7.9 µM; in data set [2], 17 µM.

In the case of `C=CCCn1cc(-c2cc(C(=O)N3CCOCC3)c3c(c2)ncn3C)c2cc[nH]c2c1=O`, the IC50 worked out at 3.6 µM in [1], 4.4 µM in data set [2] and 0.23 µM in data set [5].

Consider `C=CCCn1cc(-c2cc(C(=O)N3CCOCC3)c3nc[nH]c3c2)c2cc[nH]c2c1=O`, for which the results for the IC50 in data set [1] and in [2] were 2.3 µM and 4.4 µM, respectively.
